Data reported in PubChem BioAssay (NCI).
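All cell lines were grown in 96-well plates and treated with compound for 48 hours. GI50 = concentration required for 50% inhibition of growth. The concentration for full growth arrest is given as TGI.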

What was measured:
Experiment in all cases: DTP human tumour cell line panel, 48 h
K-562 leukemia = test system: K-562 leukemia
OVCAR-4 ovarian = test system: OVCAR-4 ovarian
LOX IMVI melanoma = test system: LOX IMVI melanoma
OVCAR-8 ovarian = test system: OVCAR-8 ovarian
IGROV1 ovarian = test system: IGROV1 ovarian
HL-60(TB) leukemia = test system: HL-60(TB) leukemia
MDA-MB-231 breast = test system: MDA-MB-231 breast
HCC-2998 colon = test system: HCC-2998 colon
MCF7 breast = test system: MCF7 breast
SK-MEL-28 melanoma = test system: SK-MEL-28 melanoma
SNB-75 CNS = test system: SNB-75 CNS
UACC-62 melanoma = test system: UACC-62 melanoma
ACHN renal = test system: ACHN renal
SW-620 colon = test system: SW-620 colon
RXF 393 renal = test system: RXF 393 renal
OVCAR-5 ovarian = test system: OVCAR-5 ovarian
RPMI-8226 leukemia = test system: RPMI-8226 leukemia
CAKI-1 renal = test system: CAKI-1 renal
A549 NSCLC = test system: A549 NSCLC
PC-3 prostate = test system: PC-3 prostate
NCI-H522 lung = test system: NCI-H522 lung
HCT-15 colon = test system: HCT-15 colon
HOP-92 NSCLC = test system: HOP-92 NSCLC
EKVX NSCLC = test system: EKVX NSCLC
COLO 205 colon = test system: COLO 205 colon
SK-MEL-2 melanoma = test system: SK-MEL-2 melanoma
SF-539 CNS = test system: SF-539 CNS
A498 renal = test system: A498 renal
TK-10 renal = test system: TK-10 renal
BT-549 breast = test system: BT-549 breast
HOP-62 NSCLC = test system: HOP-62 NSCLC
M14 melanoma = test system: M14 melanoma
HS 578T breast = test system: HS 578T breast
SNB-19 CNS = test system: SNB-19 CNS
MOLT-4 leukemia = test system: MOLT-4 leukemia
SK-OV-3 ovarian = test system: SK-OV-3 ovarian
DU-145 prostate = test system: DU-145 prostate
NCI-H460 lung = test system: NCI-H460 lung
OVCAR-3 ovarian = test system: OVCAR-3 ovarian
KM12 colon = test system: KM12 colon
MALME-3M melanoma = test system: MALME-3M melanoma
SN12C renal = test system: SN12C renal
SK-MEL-5 melanoma = test system: SK-MEL-5 melanoma
SF-295 CNS = test system: SF-295 CNS
786-0 renal = test system: 786-0 renal
HT29 colon = test system: HT29 colon
NCI/ADR-RES ovarian = test system: NCI/ADR-RES ovarian
CCRF-CEM leukemia = test system: CCRF-CEM leukemia
MDA-MB-435 = test system: MDA-MB-435
U251 CNS = test system: U251 CNS
UO-31 renal = test system: UO-31 renal
SF-268 CNS = test system: SF-268 CNS
NCI-H23 lung = test system: NCI-H23 lung
T-47D breast = test system: T-47D breast
UACC-257 melanoma = test system: UACC-257 melanoma
HCT-116 colon = test system: HCT-116 colon

For OC1(c2ccccc2)c2ccccc2N(c2ccccc2)c2ccc(Cl)cc21 (configuration not stated), the GI50 (K-562 leukemia) was 180 nM, the TGI (K-562 leukemia) was 1140 nM and the GI50 (OVCAR-4 ovarian) was 313 nM. The TGI (OVCAR-4 ovarian) was 1390 nM, the GI50 (LOX IMVI melanoma) was 179 nM and the TGI (LOX IMVI melanoma) was 348 nM. The GI50 (OVCAR-8 ovarian) was 287 nM, the TGI (OVCAR-8 ovarian) was 1250 nM and the GI50 (IGROV1 ovarian) was 341 nM. It also gave a TGI (IGROV1 ovarian) of 1150 nM, a GI50 (HL-60(TB) leukemia) of 251 nM and a TGI (HL-60(TB) leukemia) of 739 nM. It also gave a GI50 (MDA-MB-231 breast) of 231 nM, a TGI (MDA-MB-231 breast) of 626 nM and a GI50 (HCC-2998 colon) of 258 nM. The TGI (HCC-2998 colon) was 795 nM, the GI50 (MCF7 breast) was 299 nM and the TGI (MCF7 breast) was 894 nM. For the same compound, the GI50 (SK-MEL-28 melanoma) was 193 nM, the TGI (SK-MEL-28 melanoma) was 434 nM and the GI50 (SNB-75 CNS) was 293 nM. The TGI (SNB-75 CNS) was 1110 nM, the GI50 (UACC-62 melanoma) was 195 nM and the TGI (UACC-62 melanoma) was 452 nM. It also gave a GI50 (ACHN renal) of 367 nM, a TGI (ACHN renal) of 1370 nM and a GI50 (SW-620 colon) of 197 nM. It also gave a TGI (SW-620 colon) of 491 nM, a GI50 (RXF 393 renal) of 185 nM and a TGI (RXF 393 renal) of 472 nM. It also gave a GI50 (OVCAR-5 ovarian) of 457 nM, a TGI (OVCAR-5 ovarian) of 1280 nM and a GI50 (RPMI-8226 leukemia) of 216 nM. The TGI (RPMI-8226 leukemia) was 862 nM, the GI50 (CAKI-1 renal) was 257 nM and the TGI (CAKI-1 renal) was 779 nM. It also gave a GI50 (A549 NSCLC) of 332 nM, a TGI (A549 NSCLC) of 1300 nM and a GI50 (PC-3 prostate) of 303 nM. The TGI (PC-3 prostate) was 1230 nM, the GI50 (NCI-H522 lung) was 161 nM and the TGI (NCI-H522 lung) was 433 nM. For the same compound, the GI50 (HCT-15 colon) was 424 nM, the TGI (HCT-15 colon) was 1860 nM and the GI50 (HOP-92 NSCLC) was 214 nM. It also gave a TGI (HOP-92 NSCLC) of 703 nM, a GI50 (EKVX NSCLC) of 286 nM and a TGI (EKVX NSCLC) of 1250 nM. It also gave a GI50 (COLO 205 colon) of 147 nM, a TGI (COLO 205 colon) of 338 nM and a GI50 (SK-MEL-2 melanoma) of 240 nM. The TGI (SK-MEL-2 melanoma) was 485 nM, the GI50 (SF-539 CNS) was 236 nM and the TGI (SF-539 CNS) was 683 nM. For the same compound, the GI50 (A498 renal) was 198 nM, the TGI (A498 renal) was 765 nM and the GI50 (TK-10 renal) was 300 nM. The TGI (TK-10 renal) was 1010 nM, the GI50 (BT-549 breast) was 367 nM and the TGI (BT-549 breast) was 1290 nM. It also gave a GI50 (HOP-62 NSCLC) of 328 nM, a TGI (HOP-62 NSCLC) of 1230 nM and a GI50 (M14 melanoma) of 249 nM. For the same compound, the TGI (M14 melanoma) was 694 nM, the GI50 (HS 578T breast) was 332 nM and the TGI (HS 578T breast) was 1810 nM. It also gave a GI50 (SNB-19 CNS) of 378 nM, a TGI (SNB-19 CNS) of 1450 nM and a GI50 (MOLT-4 leukemia) of 294 nM. For the same compound, the TGI (MOLT-4 leukemia) was 1250 nM, the GI50 (SK-OV-3 ovarian) was 608 nM and the TGI (SK-OV-3 ovarian) was 1390 nM. It also gave a GI50 (DU-145 prostate) of 412 nM, a TGI (DU-145 prostate) of 1390 nM and a GI50 (NCI-H460 lung) of 246 nM. For the same compound, the TGI (NCI-H460 lung) was 568 nM, the GI50 (OVCAR-3 ovarian) was 147 nM and the TGI (OVCAR-3 ovarian) was 304 nM. It also gave a GI50 (KM12 colon) of 296 nM, a TGI (KM12 colon) of 845 nM and a GI50 (MALME-3M melanoma) of 237 nM. The TGI (MALME-3M melanoma) was 643 nM, the GI50 (SN12C renal) was 224 nM and the TGI (SN12C renal) was 712 nM. For the same compound, the GI50 (SK-MEL-5 melanoma) was 186 nM, the TGI (SK-MEL-5 melanoma) was 432 nM and the GI50 (SF-295 CNS) was 575 nM. It also gave a TGI (SF-295 CNS) of 2270 nM, a GI50 (786-0 renal) of 253 nM and a TGI (786-0 renal) of 680 nM. It also gave a GI50 (HT29 colon) of 283 nM, a TGI (HT29 colon) of 918 nM and a GI50 (NCI/ADR-RES ovarian) of 1550 nM. For the same compound, the TGI (NCI/ADR-RES ovarian) was 6230 nM, the GI50 (CCRF-CEM leukemia) was 382 nM and the TGI (CCRF-CEM leukemia) was 13700 nM. The GI50 (MDA-MB-435) was 213 nM, the TGI (MDA-MB-435) was 631 nM and the GI50 (U251 CNS) was 201 nM. For the same compound, the TGI (U251 CNS) was 536 nM, the GI50 (UO-31 renal) was 380 nM and the TGI (UO-31 renal) was 1510 nM. The GI50 (SF-268 CNS) was 311 nM, the TGI (SF-268 CNS) was 1140 nM and the GI50 (NCI-H23 lung) was 320 nM. It also gave a TGI (NCI-H23 lung) of 1380 nM, a GI50 (T-47D breast) of 103 nM and a TGI (T-47D breast) of 282 nM. It also gave a GI50 (UACC-257 melanoma) of 201 nM, a TGI (UACC-257 melanoma) of 720 nM and a GI50 (HCT-116 colon) of 234 nM. For the same compound, the TGI (HCT-116 colon) was 602 nM.
